Reference: ChEMBL document CHEMBL4706474, “Tetrahydro-2-naphthyl and 2-Indanyl Triazolopyrimidines Targeting Plasmodium falciparum Dihydroorotate Dehydrogenase Display Potent and Selective Antimalarial Activity” (J Med Chem, 2016)
pEC50, pIC50: −log10 of the molar value. In brackets after ≈: the same amount, converted by molar mass.

Experiments:
[1] = Cmax in Sprague-Dawley rat at 17.5 mg/kg, po measured over 24 hrs by LC-MS analysis; type: ADME, organism-based; design: route oral, dose 17.5 mg/kg, time >24; settings: in vivo
[2] = Volume of distribution at steady state in Sprague-Dawley rat at […], iv administered as infusion for 10 mins by LC-MS analysis; type: ADME, organism-based; settings: in vivo, dose 1.6 mg/kg
[3] = Protein binding in Sprague-Dawley rat plasma at […], iv administered as infusion for 10 mins by LC-MS analysis; type: ADME, organism-based; settings: dose 1.6 mg/kg, read-out: PPB (converted)
[4] = Cmax in Swiss mouse at 20 mg/kg, po administered as single dose via gavage measured over 24 hrs by LC-MS analysis; type: ADME, organism-based; design: route oral, dose 20 mg/kg, time >24; settings: in vivo
[5] = Solubility of compound in FeSSIF at pH 5 measured after 5 to 6 hrs by HPLC-UV based analysis; type: physicochemical; settings: simulated gi fluid, time 5-6 hrs
Cytochrome P450 2B6 = biological target: T1, Cytochrome P450 2B6 (Homo sapiens, UniProt P20813); assay: Inhibition of CYP2B6 in human liver microsomes using isoform-specific probe substrates in presence of NADPH-generating system by LC-MS analysis; type: ADME
T1 sequence (P20813 whole entry): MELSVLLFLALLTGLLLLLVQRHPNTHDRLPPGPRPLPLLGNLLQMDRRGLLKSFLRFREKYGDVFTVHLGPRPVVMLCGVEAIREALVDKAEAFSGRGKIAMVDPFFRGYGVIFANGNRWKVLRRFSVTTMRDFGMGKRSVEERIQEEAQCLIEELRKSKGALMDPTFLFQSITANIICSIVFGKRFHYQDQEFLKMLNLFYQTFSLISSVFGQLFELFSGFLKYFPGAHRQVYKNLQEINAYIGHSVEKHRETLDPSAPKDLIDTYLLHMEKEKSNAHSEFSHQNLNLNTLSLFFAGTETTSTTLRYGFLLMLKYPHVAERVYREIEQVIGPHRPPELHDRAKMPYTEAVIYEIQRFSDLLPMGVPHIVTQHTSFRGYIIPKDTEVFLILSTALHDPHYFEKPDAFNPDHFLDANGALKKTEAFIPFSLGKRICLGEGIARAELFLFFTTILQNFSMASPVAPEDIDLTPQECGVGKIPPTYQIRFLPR

[6] = Tmax in Swiss mouse at 20 mg/kg, po administered as single dose via gavage measured over 24 hrs by LC-MS analysis; type: ADME, organism-based; settings: in vivo
[7] = biological target: Voltage-gated inwardly rectifying potassium channel KCNH2 (Homo sapiens, UniProt Q12809)
Voltage-gated inwardly rectifying potassium channel KCNH2, sequence (Q12809 whole entry): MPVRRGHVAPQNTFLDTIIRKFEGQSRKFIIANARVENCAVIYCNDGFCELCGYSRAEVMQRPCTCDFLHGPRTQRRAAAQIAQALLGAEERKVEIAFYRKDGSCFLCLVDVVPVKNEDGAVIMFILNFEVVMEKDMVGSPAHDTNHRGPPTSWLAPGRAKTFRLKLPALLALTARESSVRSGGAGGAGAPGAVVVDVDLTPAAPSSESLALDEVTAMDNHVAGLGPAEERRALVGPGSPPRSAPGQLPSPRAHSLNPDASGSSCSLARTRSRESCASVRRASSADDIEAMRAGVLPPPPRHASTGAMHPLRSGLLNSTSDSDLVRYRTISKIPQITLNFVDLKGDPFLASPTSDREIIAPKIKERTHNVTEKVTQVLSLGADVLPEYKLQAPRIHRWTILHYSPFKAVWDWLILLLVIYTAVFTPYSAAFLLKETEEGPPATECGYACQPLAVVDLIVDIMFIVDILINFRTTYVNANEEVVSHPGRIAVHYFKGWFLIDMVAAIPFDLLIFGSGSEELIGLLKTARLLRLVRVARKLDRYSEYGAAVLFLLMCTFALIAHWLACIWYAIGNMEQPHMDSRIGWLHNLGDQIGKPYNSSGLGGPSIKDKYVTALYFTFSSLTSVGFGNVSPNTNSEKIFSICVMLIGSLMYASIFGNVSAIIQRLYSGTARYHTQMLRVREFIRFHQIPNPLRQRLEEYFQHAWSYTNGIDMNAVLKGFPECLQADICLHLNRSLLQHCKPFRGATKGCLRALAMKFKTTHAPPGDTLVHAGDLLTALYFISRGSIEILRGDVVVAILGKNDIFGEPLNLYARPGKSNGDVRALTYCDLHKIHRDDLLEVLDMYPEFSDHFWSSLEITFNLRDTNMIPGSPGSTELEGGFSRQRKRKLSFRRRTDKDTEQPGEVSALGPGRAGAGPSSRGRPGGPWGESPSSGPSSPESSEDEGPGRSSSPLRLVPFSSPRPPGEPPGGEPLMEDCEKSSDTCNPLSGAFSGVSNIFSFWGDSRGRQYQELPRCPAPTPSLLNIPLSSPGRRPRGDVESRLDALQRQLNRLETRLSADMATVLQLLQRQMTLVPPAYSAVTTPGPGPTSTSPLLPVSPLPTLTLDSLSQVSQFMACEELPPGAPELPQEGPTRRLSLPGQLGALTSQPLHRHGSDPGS
Description: Inhibition of human ERG by patch clamp electrophysiology assay

[8] = Unbound Cmax in Sprague-Dawley rat at 17.5 mg/kg, po measured over 24 hrs by LC-MS analysis; type: ADME, organism-based; settings: in vivo
[9] = AUC (0 to infinity) in Sprague-Dawley rat at 17.5 mg/kg, po measured over 24 hrs by LC-MS analysis; type: ADME, organism-based; design: route oral, dose 17.5 mg/kg, time >24; settings: in vivo
[10] = Inhibition of yeast DHODH expressed in Plasmodium falciparum; design: species or system Saccharomyces cerevisiae
[11] = AUC (0 to infinity) in Sprague-Dawley rat at […], iv administered as infusion for 10 mins by LC-MS analysis; type: ADME, organism-based; design: route intravenous, time 10 min, dose 1.6 mg/kg; settings: in vivo
[12] = Unbound volume of distribution at steady state in Sprague-Dawley rat at […], iv administered as infusion for 10 mins by LC-MS analysis; type: ADME, organism-based; settings: in vivo, dose 1.6 mg/kg
[13] = Unbound AUC (0 to infinity) in Sprague-Dawley rat at […], iv by LC-MS analysis; type: ADME, organism-based; settings: in vivo, dose 1.6 mg/kg
Plasmodium falciparum = assay: Antiplasmodial activity against Plasmodium falciparum 3D7 infected in NSG mouse assessed as blood AUC level require to show 90% reduction in parasitemia administered orally on day 3 post-infection QD for 4 days and measured after 24 hrs post dose by LC-MS/MS analysis; type: functional, organism-based; settings: time 4.0 day
[14] = Elimination half-life in Swiss mouse at 20 mg/kg, po administered as single dose via gavage measured over 24 hrs by LC-MS analysis; type: ADME, organism-based; settings: in vivo, read-out: beta t1/2 (converted)
[15] = Unbound clearance in Sprague-Dawley rat at […], iv administered as infusion for 10 mins by LC-MS analysis; type: ADME, organism-based; settings: in vivo, dose 1.6 mg/kg
[16] = Apparent half-life in rat Sprague-Dawley at […], iv administered as infusion for 10 mins by LC-MS analysis; type: ADME, organism-based; settings: in vivo, dose 1.6 mg/kg
[17] = AUC (0 to infinity) in Sprague-Dawley rat at 21.3 mg/kg, po measured over 24 hrs by LC-MS analysis; type: ADME, organism-based; design: route oral, dose 21.3 mg/kg, time >24; settings: in vivo
[18] = Apparent half-life in Sprague-Dawley rat at 1.8 mg/kg, iv administered as infusion for 10 mins by LC-MS analysis; type: ADME, organism-based; settings: in vivo, read-out: t1/2(app) (converted)
[19] = Solubility of compound in FeSSIF at pH 5.8 measured after 5 to 6 hrs by HPLC-UV based analysis; type: physicochemical; settings: simulated gi fluid, time 5-6 hrs
[20] = Unbound Cmax in Sprague-Dawley rat at 21.3 mg/kg, po measured over 24 hrs by LC-MS analysis; type: ADME, organism-based; settings: in vivo
[21] = Protein binding in Sprague-Dawley rat plasma at 1.8 mg/kg, iv administered as infusion for 10 mins by LC-MS analysis; type: ADME, organism-based; settings: read-out: PPB (converted)
[22] = Oral bioavailability in Sprague-Dawley rat at 21.3 mg/kg measured over 24 hrs by LC-MS analysis; type: ADME, organism-based; settings: in vivo
[23] = Unbound volume of distribution at steady state Sprague-Dawley in rat at 1.8 mg/kg, iv administered as infusion for 10 mins by LC-MS analysis; type: ADME, organism-based; settings: in vivo
[24] = Cmax in Sprague-Dawley rat at 21.3 mg/kg, po measured over 24 hrs by LC-MS analysis; type: ADME, organism-based; design: route oral, dose 21.3 mg/kg, time >24; settings: in vivo
[25] = Unbound clearance in Sprague-Dawley rat at 1.8 mg/kg, iv administered as infusion for 10 mins by LC-MS analysis; type: ADME, organism-based; settings: in vivo
[26] = Unbound AUC (0 to infinity) in Sprague-Dawley rat at 21.3 mg/kg, po measured over 24 hrs by LC-MS analysis; type: ADME, organism-based; settings: in vivo
[27] = Unbound AUC (0 to infinity) in Sprague-Dawley rat at 1.8 mg/kg, iv by LC-MS analysis; type: ADME, organism-based; settings: in vivo

For `Cc1cc(N[C@H]2CCc3ccc(Cl)cc3C2)n2nc(C(C)(F)F)nc2n1`, the Cmax [1] was 3.3 µM, the Vdss [2] was 6.7 L/kg and the fraction unbound at 10 min [3] was 0.035. The Cmax [4] was 5 µM, the solubility [5] was 36 µg/mL (≈ 95.3 µM) and the pIC50 (Cytochrome P450 2B6) was less than 4.70. The Tmax [6] was 1 h, the pIC50 [7] was 5.82 and the fCmax [8] was 0.12 µM. The AUC [9] was 24.6 µM·h, the pEC50 [10] was 5.07 and the AUC [11] was 3.5 µM·h. The fVdss [12] was 186 L/kg, the fAUC [13] was 0.12 µM·h and the AUCED90 (Plasmodium falciparum) was 10.3 µM.hr/day. The half-life [14] was 2 h, the CL free [15] was 589 mL/min/kg and the “t1/2(app)” value [16] was 5.9 h.

`Cc1cc(NC2Cc3cc(F)c(F)cc3C2)n2nc(C(C)(F)F)nc2n1` gave an AUC(0-inf) [17] of 202 µM·h, a half-life [18] of 11.2 h and a solubility [19] of 65 µg/mL (≈ 178 µM). For the same compound, the pIC50 (Cytochrome P450 2B6) was less than 4.70, the fCmax [20] was 0.72 µM and the fraction unbound at 10 min [21] was 0.058. The bioavailability [22] was 63%, the fVdss [23] was 47 L/kg and the Cmax [24] was 12.5 µM. It also gave a CL free [25] of 52 mL/min/kg, an AUCED90 (Plasmodium falciparum) of 137 µM.hr/day and a fAUC [26] of 11.7 µM·h. For the same compound, the fAUC [27] was 1.57 µM·h and the half-life [14] was 2 h.
